Calls of active or inactive are those of the source. The calls are words filed in the database; no cut-off is given here.
Assays:
[1] = tested on: Rattus norvegicus; test: Antidepressant activity in Wistar rat assessed as increase in immobility time at 100 mg/kg, ip after 60 min by forced swim pool method; type: functional; settings: route intraperitoneal
[2] = tested on: Mus musculus; test: Anticonvulsant activity in ip dosed albino mouse assessed as inhibition of subcutaneous pentylenetetrazole-induced seizure after 0.5 hrs; type: functional
[3] = tested on: Mus musculus; test: Behavioral activity in albino mouse assessed as decrease in locomotor activity at 100 mg/kg, ip by actophotometer; type: functional; settings: route intraperitoneal
[4] = tested on: Mus musculus; test: Neurotoxicity in ip dosed albino mouse assessed as minimal motor impairment after 0.5 hrs by rotarod test; type: toxicity, organism-based; settings: in vivo
[5] = tested on: Mus musculus; test: Anticonvulsant activity in ip dosed albino mouse assessed as inhibition of maximal electric shock-induced seizures after 0.5 hrs; type: functional
[6] = tested on: Mus musculus; test: Anticonvulsant activity in ip dosed albino mouse assessed as inhibition of subcutaneous pentylenetetrazole-induced seizure after 4 hrs; type: functional
[7] = tested on: Mus musculus; test: Anticonvulsant activity in ip dosed albino mouse assessed as inhibition of maximal electric shock-induced seizures after 4 hrs; type: functional
[8] = tested on: Mus musculus; test: Neurotoxicity in ip dosed albino mouse assessed as minimal motor impairment after 4 hrs by rotarod test; type: toxicity, organism-based; settings: in vivo
[9] = tested on: Rattus norvegicus; test: Antidepressant activity against Wistar rat assessed as increase in immobility time at 30 mg/kg, ip after 60 mins by forced swim pool method; type: functional; settings: route intraperitoneal

## CCOc1ccc(NC(=O)Nn2c(-c3ccccc3)nc3ccccc3c2=O)cc1
[1]
  Time: 273.22 s
[2]
  Activity: inactive
[3]
  inhibition in vivo at 100 mg/kg: 53%
[4]
  Activity: 100 mg/kg
[5]
  Activity: inactive
[6]
  Activity: inactive
[7]
  Activity: inactive
[8]
  Activity: Not Active

## NC(=O)N1c2ccccc2C=Cc2ccccc21 [CARBAMAZEPINE]
[2]
  Activity: 300 mg/kg
[9]
  Time: 168.32 s
[4]
  Activity: Not Active
[5]
  Activity: inactive
[6]
  Activity: inactive
[7]
  Activity: inactive
[8]
  Activity: Not Active

## CCc1nc2ccccc2c(=O)n1NC(=O)Nc1ccc([N+](=O)[O-])cc1
[1]
  Time: 212.72 s
[2]
  Activity: inactive
[3]
  inhibition in vivo at 100 mg/kg: 41%
[4]
  Activity: 100 mg/kg
[5]
  Activity: 300 mg/kg
[6]
  Activity: inactive
[7]
  Activity: inactive
[8]
  Activity: Not Active

## CCc1nc2ccccc2c(=O)n1NC(=O)Nc1ccc(OC)cc1
[1]
  Time: 141.17 s
[2]
  Activity: inactive
[3]
  inhibition in vivo at 100 mg/kg: 48%
[4]
  Activity: 300 mg/kg
[5]
  Activity: inactive
[6]
  Activity: inactive
[7]
  Activity: inactive

## O=C(Nc1ccc(Br)cc1)Nn1c(-c2ccccc2)nc2ccccc2c1=O
[1]
  Time: 228.53 s
[2]
  Activity: 300 mg/kg
[3]
  inhibition in vivo at 100 mg/kg: 58%
[4]
  Activity: 300 mg/kg
[5]
  Activity: 100 mg/kg
[6]
  Activity: inactive
[7]
  Activity: 300 mg/kg
[8]
  Activity: Not Active

## CCc1nc2ccccc2c(=O)n1NC(=O)Nc1ccc(Cl)cc1
[1]
  Time: 180.3 s
[2]
  Activity: inactive
[3]
  inhibition in vivo at 100 mg/kg: 52%
[4]
  Activity: Not Active
[5]
  Activity: inactive
[6]
  Activity: inactive
[7]
  Activity: inactive

## CCCC(CCC)C(=O)[O-].[Na+] [VALPROATE SODIUM]
[2]
  Activity: 30 mg/kg
[4]
  Activity: 100 mg/kg
[5]
  Activity: 100 mg/kg
[6]
  Activity: 300 mg/kg
[7]
  Activity: 30 mg/kg
[8]
  Activity: 300 mg/kg

## CCC1(c2ccccc2)C(=O)NC(=O)NC1=O [PHENOBARBITAL]
[2]
  Activity: 300 mg/kg
[4]
  Activity: Not Active
[5]
  Activity: inactive
[6]
  Activity: inactive
[7]
  Activity: inactive
[8]
  Activity: Not Active

## CCc1nc2ccccc2c(=O)n1NC(=O)Nc1cccc(C)c1
[1]
  Time: 165.63 s
[2]
  Activity: inactive
[3]
  inhibition in vivo at 100 mg/kg: 53%
[4]
  Activity: Not Active
[5]
  Activity: inactive
[6]
  Activity: inactive
[7]
  Activity: inactive
[8]
  Activity: Not Active

## Cc1ccc(NC(=O)Nn2c(-c3ccccc3)nc3ccccc3c2=O)cc1
[1]
  Time: 205.22 s
[2]
  Activity: inactive
[3]
  inhibition in vivo at 100 mg/kg: 54%
[4]
  Activity: 300 mg/kg
[5]
  Activity: inactive
[6]
  Activity: inactive
[7]
  Activity: inactive
[8]
  Activity: Not Active

## COc1ccc(NC(=O)Nn2c(-c3ccccc3)nc3ccccc3c2=O)cc1
[1]
  Time: 229.15 s
[2]
  Activity: 300 mg/kg
[3]
  inhibition in vivo at 100 mg/kg: 52%
[4]
  Activity: 300 mg/kg
[5]
  Activity: inactive
[6]
  Activity: inactive
[7]
  Activity: inactive
[8]
  Activity: Not Active

## Cc1ccccc1NC(=O)Nn1c(-c2ccccc2)nc2ccccc2c1=O
[1]
  Time: 162.13 s
[2]
  Activity: inactive
[3]
  inhibition in vivo at 100 mg/kg: 59%
[4]
  Activity: Not Active
[5]
  Activity: inactive
[6]
  Activity: inactive
[7]
  Activity: inactive
[8]
  Activity: Not Active

## O=C(Nc1ccc([N+](=O)[O-])cc1)Nn1c(-c2ccccc2)nc2ccccc2c1=O
[1]
  Time: 199.19 s
[2]
  Activity: 300 mg/kg
[3]
  inhibition in vivo at 100 mg/kg: 42%
[4]
  Activity: 300 mg/kg
[5]
  Activity: 300 mg/kg
[6]
  Activity: inactive
[7]
  Activity: inactive
[8]
  Activity: Not Active

## CCOc1ccc(NC(=O)Nn2c(CC)nc3ccccc3c2=O)cc1
[1]
  Time: 161.43 s
[2]
  Activity: inactive
[3]
  inhibition in vivo at 100 mg/kg: 50%
[4]
  Activity: 300 mg/kg
[5]
  Activity: 300 mg/kg
[6]
  Activity: inactive
[7]
  Activity: inactive
[8]
  Activity: 300 mg/kg

## CCc1nc2ccccc2c(=O)n1NC(=O)Nc1ccc(F)cc1
[1]
  Time: 248.32 s
[2]
  Activity: inactive
[3]
  inhibition in vivo at 100 mg/kg: 51%
[4]
  Activity: Not Active
[5]
  Activity: inactive
[6]
  Activity: inactive
[7]
  Activity: inactive
[8]
  Activity: Not Active

## CCc1nc2ccccc2c(=O)n1NC(=O)Nc1ccccc1C
[1]
  Time: 186.3 s
[2]
  Activity: inactive
[3]
  inhibition in vivo at 100 mg/kg: 54%
[4]
  Activity: Not Active
[5]
  Activity: inactive
[6]
  Activity: inactive
[7]
  Activity: inactive
[8]
  Activity: Not Active

## CCc1nc2ccccc2c(=O)n1NC(=O)Nc1ccccc1
[1]
  Time: 170.1 s
[2]
  Activity: 300 mg/kg
[3]
  inhibition in vivo at 100 mg/kg: 54%
[4]
  Activity: 300 mg/kg
[5]
  Activity: 100 mg/kg
[6]
  Activity: inactive
[7]
  Activity: inactive

## O=C(Nc1ccc(F)cc1)Nn1c(-c2ccccc2)nc2ccccc2c1=O
[1]
  Time: 211.14 s
[2]
  Activity: inactive
[3]
  inhibition in vivo at 100 mg/kg: 54%
[4]
  Activity: Not Active
[5]
  Activity: inactive
[6]
  Activity: inactive
[7]
  Activity: inactive
[8]
  Activity: Not Active

## CCc1nc2ccccc2c(=O)n1NC(=O)Nc1ccc(Br)cc1
[1]
  Time: 222.2 s
[3]
  inhibition in vivo at 100 mg/kg: 54%
[4]
  Activity: 300 mg/kg
[5]
  Activity: inactive
[7]
  Activity: inactive
[8]
  Activity: Not Active

## CCc1ccc(NC(=O)Nn2c(CC)nc3ccccc3c2=O)cc1
[1]
  Time: 227.54 s
[2]
  Activity: inactive
[3]
  inhibition in vivo at 100 mg/kg: 58%
[4]
  Activity: Not Active
[5]
  Activity: inactive
[6]
  Activity: inactive
[7]
  Activity: inactive
[8]
  Activity: Not Active

## CCc1ccc(NC(=O)Nn2c(-c3ccccc3)nc3ccccc3c2=O)cc1
[1]
  Time: 213.13 s
[2]
  Activity: inactive
[3]
  inhibition in vivo at 100 mg/kg: 61%
[4]
  Activity: Not Active
[5]
  Activity: inactive
[6]
  Activity: inactive
[7]
  Activity: inactive
[8]
  Activity: Not Active

## CCc1nc2ccccc2c(=O)n1NC(=O)Nc1ccc(C)cc1
[1]
  Time: 243.42 s
[2]
  Activity: inactive
[3]
  inhibition in vivo at 100 mg/kg: 55%
[4]
  Activity: 300 mg/kg
[5]
  Activity: 100 mg/kg
[6]
  Activity: inactive
[7]
  Activity: 300 mg/kg
[8]
  Activity: Not Active

## O=C(Nc1ccc(I)cc1)Nn1c(-c2ccccc2)nc2ccccc2c1=O
[1]
  Time: 181.15 s
[3]
  inhibition in vivo at 100 mg/kg: 60%
[4]
  Activity: 300 mg/kg
[5]
  Activity: inactive
[7]
  Activity: inactive
[8]
  Activity: Not Active

## CCc1nc2ccccc2c(=O)n1NC(=O)Nc1ccc(I)cc1
[1]
  Time: 274.4 s
[3]
  inhibition in vivo at 100 mg/kg: 55%
[4]
  Activity: Not Active
[5]
  Activity: inactive
[6]
  Activity: inactive
[7]
  Activity: inactive
[8]
  Activity: Not Active

## O=C(Nc1ccc(Cl)cc1)Nn1c(-c2ccccc2)nc2ccccc2c1=O
[1]
  Time: 218.5 s
[2]
  Activity: 300 mg/kg
[3]
  inhibition in vivo at 100 mg/kg: 55%
[4]
  Activity: 300 mg/kg
[5]
  Activity: 300 mg/kg
[6]
  Activity: inactive
[7]
  Activity: inactive
[8]
  Activity: Not Active

## O=C1NC(=O)C(c2ccccc2)(c2ccccc2)N1 [PHENYTOIN]
[2]
  Activity: 100 mg/kg
[3]
  inhibition in vivo at 100 mg/kg: 69%
[4]
  Activity: 100 mg/kg
[5]
  Activity: 30 mg/kg
[6]
  Activity: 300 mg/kg
[7]
  Activity: 100 mg/kg
[8]
  Activity: 300 mg/kg

## O=C(Nc1ccccc1)Nn1c(-c2ccccc2)nc2ccccc2c1=O
[1]
  Time: 186.46 s
[2]
  Activity: inactive
[3]
  inhibition in vivo at 100 mg/kg: 56%
[4]
  Activity: 300 mg/kg
[5]
  Activity: inactive
[6]
  Activity: inactive
[7]
  Activity: inactive
[8]
  Activity: Not Active

## Cc1cccc(NC(=O)Nn2c(-c3ccccc3)nc3ccccc3c2=O)c1
[1]
  Time: 171.24 s
[2]
  Activity: inactive
[3]
  inhibition in vivo at 100 mg/kg: 59%
[4]
  Activity: Not Active
[5]
  Activity: inactive
[6]
  Activity: inactive
[7]
  Activity: inactive
[8]
  Activity: Not Active

— ChEMBL document CHEMBL1155968, “Synthesis, anticonvulsant and CNS depressant activity of some new bioactive 1-(4-substituted-phenyl)-3-(4-oxo-2-phenyl/ethyl-4H-quinazolin-3-yl)-urea” (Eur J Med Chem, 2009)
